According to patent EP0355039A2, “Methods and means for controlling the stability of proteins” (priority 1988, dated 1990):

What was measured:
Format in all cases: biochemical
[1] = target: T1, Actinoplanes missouriensis (DSM 43046) D-glucose isomerase (D-xylose isomerase, EC 5.3.1.5) EcoAmi(DSM) GI, wild type (WT-GI) (Actinoplanes missouriensis, UniProt P12851); test: Glucose isomerase catalytic parameters (D-sorbitol dehydrogenase coupled assay for D-xylose; cysteine-carbazole method for D-glucose)
T1 construct: made in house; host or cells: E. coli K514
T1 sequence (P12851 whole entry): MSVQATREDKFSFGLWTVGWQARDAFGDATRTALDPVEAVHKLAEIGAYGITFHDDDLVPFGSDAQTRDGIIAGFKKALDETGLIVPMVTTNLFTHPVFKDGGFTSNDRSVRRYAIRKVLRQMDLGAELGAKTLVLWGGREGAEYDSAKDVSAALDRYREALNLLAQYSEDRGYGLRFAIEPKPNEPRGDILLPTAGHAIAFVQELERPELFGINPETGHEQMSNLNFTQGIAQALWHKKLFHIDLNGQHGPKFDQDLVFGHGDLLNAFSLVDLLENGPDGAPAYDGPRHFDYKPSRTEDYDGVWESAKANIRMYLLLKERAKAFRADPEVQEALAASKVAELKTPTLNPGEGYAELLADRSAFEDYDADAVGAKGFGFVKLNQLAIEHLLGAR
Procedure: (§1) The enzymatic activity of glucose isomerase was assayed as described below (1 unit of enzymatic activity produces 1.0 micromole of product -D-xylulose or D-fructose- per minute; therefore, specific activity -spa- is expressed as units per mg of GI enzyme).
(§2) In the D-Sorbitol Dehydrogenase Coupled Assay, enzymatic determination of D-xylulose was performed at 35°C as previously described (Kersters-Hilderson et al., 1987) in 50mM triethanolamine, pH 7.5, 10mM MgSO₄, and 0.1 M xylose, in the presence of ∼ 2 x 10⁻⁸ M D-sorbitol dehydrogenase (L-iditol : NAD oxidoreductase, EC 1.1.1.14), and 0.15mM NADH, except that the incubation buffer also included 1mM ethylenebis(oxyethylenenitrilo)tetraacetic acid (EGTA). Glucose isomerase final concentration in this assay was about 2.5 x 10⁻³ mg/ml, and precisely determined as described above.
(§3) With glucose as a substrate, GI activity can be assayed by measuring the amount of D-fructose produced during the isomerization reaction using the cysteine-carbazole method which is based on the reaction of ketosugars with carbazole in acids to yield a purple product (Dische and Borenfreund, 1951).

[2] = target: T2, Actinoplanes missouriensis (DSM 43046) D-glucose isomerase EcoAmi(DSM) GI mutant K253Q (Lys-253 to Gln) (Actinoplanes missouriensis, UniProt P12851, K253Q)
T2 construct: made in house; host or cells: E. coli K514
T2 sequence (P12851 whole entry K253Q): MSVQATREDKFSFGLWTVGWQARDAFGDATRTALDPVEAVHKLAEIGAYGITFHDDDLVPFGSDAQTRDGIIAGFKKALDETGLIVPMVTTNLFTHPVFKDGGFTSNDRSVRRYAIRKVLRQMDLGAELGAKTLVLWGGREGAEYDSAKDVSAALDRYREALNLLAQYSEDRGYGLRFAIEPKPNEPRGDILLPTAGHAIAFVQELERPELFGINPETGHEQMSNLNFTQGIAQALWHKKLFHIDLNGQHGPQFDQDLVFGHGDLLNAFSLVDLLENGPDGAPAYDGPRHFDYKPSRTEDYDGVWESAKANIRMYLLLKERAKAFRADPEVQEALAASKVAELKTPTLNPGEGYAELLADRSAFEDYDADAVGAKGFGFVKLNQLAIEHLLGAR
Procedure: as §1, §2, §3

[3] = target: T3, Actinoplanes missouriensis (DSM 43046) D-glucose isomerase EcoAmi(DSM) GI mutant K253R (Lys-253 to Arg) (Actinoplanes missouriensis, UniProt P12851, K253R)
T3 construct: made in house; host or cells: E. coli K514
T3 sequence (P12851 whole entry K253R): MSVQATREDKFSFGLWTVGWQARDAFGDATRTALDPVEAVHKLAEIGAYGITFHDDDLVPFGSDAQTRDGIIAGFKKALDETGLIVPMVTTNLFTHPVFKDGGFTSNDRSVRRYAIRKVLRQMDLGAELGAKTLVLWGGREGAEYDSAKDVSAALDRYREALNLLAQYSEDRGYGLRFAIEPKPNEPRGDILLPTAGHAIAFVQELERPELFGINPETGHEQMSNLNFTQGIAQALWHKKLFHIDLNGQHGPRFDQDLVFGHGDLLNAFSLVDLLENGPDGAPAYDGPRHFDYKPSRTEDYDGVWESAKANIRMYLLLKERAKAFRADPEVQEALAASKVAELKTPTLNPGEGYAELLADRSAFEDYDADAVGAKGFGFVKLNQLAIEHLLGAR
Procedure: as §1, §2, §3

[4] = D-xylose as substrate, coupled assay, 35°C, 50mM triethanolamine pH 7.5, 10mM MgSO4

Substance | Vmax (Glucose) ([1]; D-glucose as substrate) | Vmax (Glucose) ([2]; D-glucose as substrate) | Vmax (Glucose) ([3]; D-glucose as substrate) | Km [1, 4] [mM] | Vmax (Xylose) [1, 4] | Km [2, 4] [mM] | Vmax (Xylose) [2, 4] | Km [3, 4] [mM] | Vmax (Xylose) [3, 4]
D-glucose | 30.6 units per mg of enzyme | 29.0 units per mg of enzyme | 27.2 units per mg of enzyme |  |  |  |  |  | 
D-xylose |  |  |  | 4.8 | 24.2 units per mg of enzyme | 4.4 | 15.1 units per mg of enzyme | 5.3 | 24.6 units per mg of enzyme
